# Where two headings read alike, the source gives them in different places.
# How the values were obtained:
# human NOX1 = biological target: T1, human NOX1 (Homo sapiens, UniProt Q9Y5S8); experiment: WST-1 O2•- detection in NOX1-expressing CHO cells; assay type: cell-based; conditions: WST-1, PMA 0.1 μM
# T1 construct: expressed in transfected cells; host or cells: CHO
# T1 sequence (Q9Y5S8 1-564): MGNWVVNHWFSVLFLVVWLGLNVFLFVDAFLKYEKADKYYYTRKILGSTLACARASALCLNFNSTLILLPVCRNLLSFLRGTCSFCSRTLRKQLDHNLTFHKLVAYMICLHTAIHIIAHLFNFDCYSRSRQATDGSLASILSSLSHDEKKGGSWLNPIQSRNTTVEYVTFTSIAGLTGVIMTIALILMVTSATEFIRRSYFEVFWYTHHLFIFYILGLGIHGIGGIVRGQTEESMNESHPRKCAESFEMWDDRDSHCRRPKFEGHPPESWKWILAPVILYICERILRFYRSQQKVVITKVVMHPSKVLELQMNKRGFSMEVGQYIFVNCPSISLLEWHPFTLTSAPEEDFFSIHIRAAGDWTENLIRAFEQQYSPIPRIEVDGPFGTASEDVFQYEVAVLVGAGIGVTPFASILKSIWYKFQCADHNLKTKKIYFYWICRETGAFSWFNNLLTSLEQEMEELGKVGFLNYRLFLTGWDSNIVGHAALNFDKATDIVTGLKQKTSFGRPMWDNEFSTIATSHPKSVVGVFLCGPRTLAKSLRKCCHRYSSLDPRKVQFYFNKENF
# T1 sequence (P13498 1-195 partner): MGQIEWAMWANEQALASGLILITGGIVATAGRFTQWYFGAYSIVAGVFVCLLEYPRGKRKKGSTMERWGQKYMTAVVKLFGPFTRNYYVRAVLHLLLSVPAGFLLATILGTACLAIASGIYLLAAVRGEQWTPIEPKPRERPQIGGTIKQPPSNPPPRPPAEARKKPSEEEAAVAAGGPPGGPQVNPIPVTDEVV
# human NOX4 [1] = biological target: T2, human NOX4 (Homo sapiens, UniProt Q9NPH5); experiment: WST-1 O2•- detection in tetracycline-induced NOX4 HEK293 T-REx cells; assay type: cell-based; conditions: WST-1, tetracycline 1 μg/mL 24 h
# T2 sequence (Q9NPH5 1-578): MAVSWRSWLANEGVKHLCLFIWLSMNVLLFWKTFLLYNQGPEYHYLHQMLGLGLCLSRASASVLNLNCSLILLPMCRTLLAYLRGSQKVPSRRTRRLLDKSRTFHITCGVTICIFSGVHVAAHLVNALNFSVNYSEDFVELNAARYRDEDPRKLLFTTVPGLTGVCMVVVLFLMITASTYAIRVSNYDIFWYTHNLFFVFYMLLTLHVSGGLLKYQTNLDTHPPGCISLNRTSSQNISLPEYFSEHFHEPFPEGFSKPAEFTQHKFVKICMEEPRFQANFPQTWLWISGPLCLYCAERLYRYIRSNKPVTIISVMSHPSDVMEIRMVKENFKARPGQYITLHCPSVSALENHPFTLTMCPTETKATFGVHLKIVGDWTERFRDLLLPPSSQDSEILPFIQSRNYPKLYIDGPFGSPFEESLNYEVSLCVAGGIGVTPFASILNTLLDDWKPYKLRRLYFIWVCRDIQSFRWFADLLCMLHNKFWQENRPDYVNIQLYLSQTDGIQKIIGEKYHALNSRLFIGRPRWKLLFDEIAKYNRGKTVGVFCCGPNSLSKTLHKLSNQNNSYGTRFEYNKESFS
# T2 sequence (P13498 1-195 partner): T1 sequence (P13498 1-195 partner)
# NOX5 = biological target: T3, NOX5 (Homo sapiens, UniProt Q96PH1); experiment: WST-1 O2•- detection in NOX5-expressing HEK293 cells; assay type: cell-based; conditions: WST-1, PMA 0.1 μM and ionomycin 1 μM; read-out: IC50 NOX5 (HEK) WST-1
# T3 construct: expressed in transfected cells
# T3 sequence (Q96PH1 19-737 isoform Q96PH1-3 limits assumed): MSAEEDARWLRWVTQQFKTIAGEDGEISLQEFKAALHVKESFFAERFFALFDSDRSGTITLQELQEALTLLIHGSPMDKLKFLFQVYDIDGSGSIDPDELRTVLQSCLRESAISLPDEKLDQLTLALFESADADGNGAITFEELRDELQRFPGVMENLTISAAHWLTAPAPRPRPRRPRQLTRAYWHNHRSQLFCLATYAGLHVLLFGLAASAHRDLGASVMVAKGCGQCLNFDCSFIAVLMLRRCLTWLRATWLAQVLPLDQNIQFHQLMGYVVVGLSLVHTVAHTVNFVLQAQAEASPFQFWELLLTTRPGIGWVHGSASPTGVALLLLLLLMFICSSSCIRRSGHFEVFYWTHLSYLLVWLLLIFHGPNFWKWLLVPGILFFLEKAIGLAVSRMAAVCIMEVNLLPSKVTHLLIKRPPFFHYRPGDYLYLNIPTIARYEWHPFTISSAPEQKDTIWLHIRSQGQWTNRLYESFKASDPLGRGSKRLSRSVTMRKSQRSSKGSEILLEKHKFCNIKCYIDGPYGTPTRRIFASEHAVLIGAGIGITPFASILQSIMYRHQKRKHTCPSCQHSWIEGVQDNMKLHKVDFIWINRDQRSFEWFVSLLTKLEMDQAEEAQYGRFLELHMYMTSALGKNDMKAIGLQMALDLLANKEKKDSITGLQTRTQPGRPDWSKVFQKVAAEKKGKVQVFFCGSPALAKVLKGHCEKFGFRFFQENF
# DUOX1 = biological target: T4, DUOX1 (Homo sapiens, UniProt Q9NRD9); experiment: Amplex Red/HRP H2O2 detection in DUOX1-expressing HEK293 cells; assay type: cell-based
# T4 construct: expressed in transfected cells; host or cells: HEK293, selected with G418 and zeocin
# T4 sequence (Q9NRD9 22-1551): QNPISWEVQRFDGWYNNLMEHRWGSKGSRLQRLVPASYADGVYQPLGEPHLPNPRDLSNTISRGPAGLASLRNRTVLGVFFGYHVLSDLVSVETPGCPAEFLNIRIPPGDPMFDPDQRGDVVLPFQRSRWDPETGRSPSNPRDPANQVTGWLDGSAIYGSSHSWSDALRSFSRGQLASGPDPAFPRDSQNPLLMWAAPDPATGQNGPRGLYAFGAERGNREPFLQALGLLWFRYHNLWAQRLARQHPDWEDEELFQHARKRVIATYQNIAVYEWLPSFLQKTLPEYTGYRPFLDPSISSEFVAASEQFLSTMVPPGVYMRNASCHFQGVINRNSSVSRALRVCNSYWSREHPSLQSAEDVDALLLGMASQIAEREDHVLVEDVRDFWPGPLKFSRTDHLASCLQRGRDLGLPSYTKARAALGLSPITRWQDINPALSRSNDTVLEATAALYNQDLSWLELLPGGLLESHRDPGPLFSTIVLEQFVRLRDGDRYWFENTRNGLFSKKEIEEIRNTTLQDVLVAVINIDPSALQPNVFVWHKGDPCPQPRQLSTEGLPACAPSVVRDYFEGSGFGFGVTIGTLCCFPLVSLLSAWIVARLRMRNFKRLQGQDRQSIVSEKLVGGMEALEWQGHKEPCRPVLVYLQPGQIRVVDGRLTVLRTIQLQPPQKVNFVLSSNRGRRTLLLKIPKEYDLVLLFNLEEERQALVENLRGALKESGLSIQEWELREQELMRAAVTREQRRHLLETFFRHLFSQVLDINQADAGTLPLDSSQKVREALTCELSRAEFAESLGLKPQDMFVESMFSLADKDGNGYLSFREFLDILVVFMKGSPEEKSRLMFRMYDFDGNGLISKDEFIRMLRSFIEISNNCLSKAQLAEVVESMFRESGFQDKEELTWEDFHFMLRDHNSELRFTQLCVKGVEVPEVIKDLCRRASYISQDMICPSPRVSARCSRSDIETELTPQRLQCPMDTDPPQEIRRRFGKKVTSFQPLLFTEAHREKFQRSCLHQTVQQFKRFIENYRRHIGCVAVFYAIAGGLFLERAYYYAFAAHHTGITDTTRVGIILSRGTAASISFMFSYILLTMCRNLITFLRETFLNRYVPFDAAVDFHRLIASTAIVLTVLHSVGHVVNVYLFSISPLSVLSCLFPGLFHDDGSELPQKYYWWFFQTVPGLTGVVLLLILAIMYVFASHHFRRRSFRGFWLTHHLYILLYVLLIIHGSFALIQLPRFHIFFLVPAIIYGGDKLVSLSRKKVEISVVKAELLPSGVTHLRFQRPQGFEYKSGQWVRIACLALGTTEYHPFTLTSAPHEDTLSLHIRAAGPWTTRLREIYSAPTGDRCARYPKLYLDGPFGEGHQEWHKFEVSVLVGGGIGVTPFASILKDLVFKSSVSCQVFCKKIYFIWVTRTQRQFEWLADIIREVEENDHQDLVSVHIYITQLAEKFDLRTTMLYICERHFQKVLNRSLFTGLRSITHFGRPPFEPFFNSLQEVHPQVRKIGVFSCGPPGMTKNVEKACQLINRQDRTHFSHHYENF
# T4 sequence (Q1HG43 whole entry partner): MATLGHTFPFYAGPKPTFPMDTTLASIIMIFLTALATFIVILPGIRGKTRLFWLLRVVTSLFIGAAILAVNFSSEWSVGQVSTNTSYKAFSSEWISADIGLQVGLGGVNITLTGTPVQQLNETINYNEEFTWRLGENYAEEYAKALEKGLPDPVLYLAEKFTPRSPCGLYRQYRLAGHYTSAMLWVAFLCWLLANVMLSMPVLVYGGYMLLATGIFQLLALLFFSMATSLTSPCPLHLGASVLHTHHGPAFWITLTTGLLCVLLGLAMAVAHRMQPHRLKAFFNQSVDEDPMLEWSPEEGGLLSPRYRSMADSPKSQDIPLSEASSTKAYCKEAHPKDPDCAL
# DUOX2 = biological target: T5, DUOX2 (Homo sapiens, UniProt Q9NRD8); experiment: Amplex Red/HRP H2O2 detection in DUOX2-expressing HEK293 cells; assay type: cell-based; conditions: PMA 0.1 μM and ionomycin 1 μM, read-out: IC50 DUOX2 (HEK) AR
# T5 construct: expressed in transfected cells; host or cells: HEK293, selected with G418 and zeocin
# T5 sequence (Q9NRD8 26-1548): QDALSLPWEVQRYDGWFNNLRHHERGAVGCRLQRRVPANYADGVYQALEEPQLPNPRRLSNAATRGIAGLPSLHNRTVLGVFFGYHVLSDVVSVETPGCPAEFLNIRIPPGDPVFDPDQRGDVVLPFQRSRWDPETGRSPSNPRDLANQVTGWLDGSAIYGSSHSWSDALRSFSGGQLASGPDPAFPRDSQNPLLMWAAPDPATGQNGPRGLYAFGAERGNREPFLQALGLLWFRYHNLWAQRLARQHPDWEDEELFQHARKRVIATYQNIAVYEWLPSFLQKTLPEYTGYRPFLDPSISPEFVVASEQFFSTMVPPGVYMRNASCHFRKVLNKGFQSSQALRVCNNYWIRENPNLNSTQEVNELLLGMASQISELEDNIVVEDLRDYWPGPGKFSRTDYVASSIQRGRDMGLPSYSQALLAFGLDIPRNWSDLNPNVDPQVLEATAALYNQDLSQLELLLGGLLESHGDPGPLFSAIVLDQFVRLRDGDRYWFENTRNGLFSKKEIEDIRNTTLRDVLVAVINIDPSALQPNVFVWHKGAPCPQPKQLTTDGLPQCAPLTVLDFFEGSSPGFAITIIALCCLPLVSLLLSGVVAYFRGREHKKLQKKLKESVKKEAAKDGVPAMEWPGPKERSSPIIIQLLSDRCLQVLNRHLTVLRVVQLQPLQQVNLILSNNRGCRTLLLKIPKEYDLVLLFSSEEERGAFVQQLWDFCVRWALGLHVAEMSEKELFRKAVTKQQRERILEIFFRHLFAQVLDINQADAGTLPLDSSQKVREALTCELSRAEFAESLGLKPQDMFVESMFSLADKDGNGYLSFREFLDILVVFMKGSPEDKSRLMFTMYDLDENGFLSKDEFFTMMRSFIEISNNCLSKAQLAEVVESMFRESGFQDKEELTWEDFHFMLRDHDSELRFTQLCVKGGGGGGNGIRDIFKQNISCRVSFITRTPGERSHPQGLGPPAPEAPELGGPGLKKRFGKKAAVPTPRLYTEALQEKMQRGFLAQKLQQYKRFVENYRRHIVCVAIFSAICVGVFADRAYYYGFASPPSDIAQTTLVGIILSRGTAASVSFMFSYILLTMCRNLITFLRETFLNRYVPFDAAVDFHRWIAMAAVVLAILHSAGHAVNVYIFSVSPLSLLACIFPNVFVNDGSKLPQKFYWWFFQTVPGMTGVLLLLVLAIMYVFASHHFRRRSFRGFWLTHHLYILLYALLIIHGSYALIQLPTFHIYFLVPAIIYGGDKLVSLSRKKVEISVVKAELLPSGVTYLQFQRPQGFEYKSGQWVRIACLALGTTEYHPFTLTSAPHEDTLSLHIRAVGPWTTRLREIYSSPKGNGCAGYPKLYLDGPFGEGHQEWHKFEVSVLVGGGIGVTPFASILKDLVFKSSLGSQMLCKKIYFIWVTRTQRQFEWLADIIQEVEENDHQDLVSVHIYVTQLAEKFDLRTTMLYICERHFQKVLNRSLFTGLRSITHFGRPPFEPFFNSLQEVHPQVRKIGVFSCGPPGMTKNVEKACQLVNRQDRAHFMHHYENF
# T5 sequence (Q1HG44 whole entry partner): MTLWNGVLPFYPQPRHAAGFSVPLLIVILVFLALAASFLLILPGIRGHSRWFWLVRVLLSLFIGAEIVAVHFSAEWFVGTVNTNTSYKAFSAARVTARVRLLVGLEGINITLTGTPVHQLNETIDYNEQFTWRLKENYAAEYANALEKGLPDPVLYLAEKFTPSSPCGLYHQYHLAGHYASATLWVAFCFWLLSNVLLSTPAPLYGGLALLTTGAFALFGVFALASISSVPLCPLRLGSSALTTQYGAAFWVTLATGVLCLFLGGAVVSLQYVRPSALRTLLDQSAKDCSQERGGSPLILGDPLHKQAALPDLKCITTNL
# [2] = Cell-free CBA assay with 10 μM H2O2 (H2O2 scavenging); conditions: 10 μM H2O2, 800 μM CBA
# in vitro [3] = conditions: Chinese hamster
# Experimental: (§1) The effect of the compounds on cell viability was obtained using the Calcein-AM assay. […] Cells suspensions were prepared in HBSS. Cells were preincubated at 50,000 cells/well with compounds for 10 min at room temperature before addition of 4 μM Calcein-AM. Then the plate was incubated at 37 °C for 1 h in the dark. Intracellular Calcein fluorescence was measured using Spectramax Paradigm (Molecular Devices) at 485 nm excitation and 520 nm emission.
# in vitro [4] = conditions: human
# Experimental: as §1
# in vitro [5] = conditions: human; remark: listed apart in the source
# Experimental: as §1
# human NOX4 [6] = biological target: T2, human NOX4; experiment: Amplex Red/HRP H2O2 detection in tetracycline-induced NOX4 HEK293 T-REx cells
# [7] = Amplex red/HRP, PMA 0.1 μM and ionomycin 1 μM, read-out: IC50 DUOX1 (HEK) AR
SMILES,IC50 (human NOX1) [µM],IC50 (human NOX4 [1]) [µM],IC50 (NOX5) [µM],IC50 (DUOX1; [7]) [µM],IC50 (DUOX2) [µM],Effect on CBA signal (direct scavenging of H2O2) ([2]; serial dilutions),CC50 at 1 h (in vitro [3]; CHO cells) [µM],CC50 at 1 h (in vitro [4]; HEK/T-REx cells) [µM],CC50 at 1 h (in vitro [5]; PLB-985 cells) [µM],IC50 (human NOX4 [6]) [µM],Effect on CBA signal (direct scavenging of H2O2) ([2]; at high concentration),CC50 at 1 h (in vitro [3]) [µM],CC50 at 1 h (in vitro [4]) [µM],CC50 at 1 h (in vitro [5]) [µM],IC50 (DUOX1) [µM]
"COc1cc(C(C)=O)cc(-c2cc(C(C)=O)cc(OC)c2O)c1O [Diapocynin, diapocynin]",> 50,> 50,> 50,13.6,21.7,inactive,> 50,> 50,> 50,> 50,,,,,
"O=c1c2ccccc2[se]n1-c1ccccc1 [Ebselen, ebselen]",31.6,,,4.2,4.2,inhibited the CBA signal,3.3,1.8,3.1,4.1,,,,,
"COc1cc(C(C)=O)ccc1O [Apocynin, apocynin]",> 50,> 50,> 50,> 50,> 50,,,,,> 50,inhibited the CBA signal,> 50,> 50,> 50,
"c1ccc2c(c1)[I+]c1ccccc1-2 [DPI, diphenylene iodonium chloride]",,,,,,,,,,,,> 50,> 50,> 50,1.4
Cc1c2c(=O)n(-c3ccccc3Cl)[nH]c2cc(=O)n1Cc1ccccn1 [GKT136901],> 50,> 50,> 50,5.9,9.8,not scavenging H2O2,> 50,> 50,> 50,2.7,,,,,

# Source: article PMC6658998, “Pharmacological characterization of the seven human NOX isoforms and their inhibitors” (Redox Biology, 2019)
